Test results published in the OligoGym collection.
HELM strings list units from the 5' end as sugar, base in round brackets, then linkage (d deoxyribose, r ribose, m 2'-O-methyl, p phosphodiester). Strings are as the collection lists them, not checked against the first reports. ss, as = sense and antisense strand; [lna] = locked nucleic acid (LNA); [fl2r] = 2'-fluoro

Details: siRNA
Further: test system not given here.

Substance	target mRNA knockdown [%]
RNA1{[fl2r](G)p.m(A)p.[fl2r](C)p.m(G)p.[fl2r](U)p.m(A)p.[fl2r](A)p.m(A)p.[fl2r](C)p.m(G)p.[fl2r](G)p.m(C)p.[fl2r](C)p.m(A)p.[fl2r](C)p.m(A)p.[fl2r](A)p.m(G)p.[fl2r](U)p.m(U)p.[fl2r](C)}|RNA2{r(A)p.r(C)p.r(U)p.r(U)p.r(G)p.r(U)p.r(G)p.r(G)p.r(C)p.r(C)p.r(G)p.r(U)p.r(U)p.r(U)p.r(A)p.r(C)p.r(G)p.r(U)p.[lna](C)p.[lna](G)p.r(C)}$$$RNA1{StrandType:ss}|RNA2{StrandType:as}$	84.4
RNA1{[fl2r](G)p.m(A)p.[fl2r](C)p.m(G)p.[fl2r](U)p.m(A)p.[fl2r](A)p.m(A)p.[fl2r](C)p.m(G)p.[fl2r](G)p.m(C)p.[fl2r](C)p.m(A)p.[fl2r](C)p.m(A)p.[fl2r](A)p.m(G)p.[fl2r](U)p.m(U)p.[fl2r](C)}|RNA2{r(A)p.r(C)p.r(U)p.r(U)p.r(G)p.r(U)p.r(G)p.r(G)p.r(C)p.r(C)p.r(G)p.r(U)p.r(U)p.r(U)p.r(A)p.r(C)p.r(G)p.r(U)p.r(C)p.r(G)p.r(C)}$$$RNA1{StrandType:ss}|RNA2{StrandType:as}$	87.3
RNA1{[fl2r](G)p.r(A)p.[fl2r](C)p.r(C)p.[fl2r](A)p.r(C)p.[fl2r](G)p.r(A)p.[fl2r](A)p.r(G)p.[fl2r](A)p.r(G)p.[fl2r](U)p.r(U)p.[fl2r](A)p.r(A)p.[fl2r](C)p.r(C)p.[fl2r](C)p.r(T)p.r(T)}|RNA2{r(G)p.r(G)p.r(G)p.r(U)p.r(U)p.r(A)p.r(A)p.r(C)p.r(U)p.r(C)p.r(U)p.r(U)p.r(C)p.r(G)p.r(U)p.r(G)p.r(G)p.r(U)p.r(C)p.r(T)p.r(T)}$$$RNA1{StrandType:ss}|RNA2{StrandType:as}$	51
RNA1{[fl2r](G)p.r(A)p.[fl2r](G)p.r(U)p.[fl2r](A)p.r(U)p.[fl2r](U)p.r(U)p.[fl2r](C)p.r(C)p.[fl2r](G)p.r(C)p.[fl2r](U)p.r(G)p.[fl2r](G)p.r(A)p.[fl2r](A)p.r(C)p.[fl2r](U)p.r(T)p.r(T)}|RNA2{r(A)p.r(G)p.r(U)p.r(U)p.r(C)p.r(C)p.r(A)p.r(G)p.r(C)p.r(G)p.r(G)p.r(A)p.r(A)p.r(A)p.r(U)p.r(A)p.r(C)p.r(U)p.r(C)p.r(T)p.r(T)}$$$RNA1{StrandType:ss}|RNA2{StrandType:as}$	21
RNA1{[fl2r](G)p.r(C)p.[fl2r](C)p.r(U)p.[fl2r](C)p.r(U)p.[fl2r](C)p.r(U)p.[fl2r](A)p.r(U)p.[fl2r](C)p.r(C)p.[fl2r](U)p.r(U)p.[fl2r](A)p.r(G)p.[fl2r](C)p.r(U)p.r(U)p.r(T)p.r(T)}|RNA2{r(A)p.r(A)p.r(G)p.r(C)p.r(U)p.r(A)p.[fl2r](A)p.r(G)p.r(G)p.r(A)p.r(U)p.[fl2r](A)p.r(G)p.r(A)p.r(G)p.r(A)p.r(G)p.r(G)p.r(C)p.r(T)p.r(T)}$$$RNA1{StrandType:ss}|RNA2{StrandType:as}$	34
RNA1{[fl2r](G)p.r(C)p.[fl2r](U)p.r(A)p.[fl2r](C)p.r(C)p.[fl2r](G)p.r(C)p.[fl2r](A)p.r(A)p.[fl2r](C)p.r(C)p.[fl2r](A)p.r(C)p.[fl2r](G)p.r(A)p.[fl2r](G)p.r(C)p.[fl2r](U)p.r(T)p.r(T)}|RNA2{r(A)p.r(G)p.r(C)p.r(U)p.r(C)p.r(G)p.r(U)p.r(G)p.r(G)p.r(U)p.r(U)p.r(G)p.r(C)p.r(G)p.r(G)p.r(U)p.r(A)p.r(G)p.r(C)p.r(T)p.r(T)}$$$RNA1{StrandType:ss}|RNA2{StrandType:as}$	21
RNA1{[fl2r](G)p.r(C)p.[fl2r](U)p.r(G)p.[fl2r](A)p.r(A)p.[fl2r](C)p.r(U)p.[fl2r](A)p.r(G)p.[fl2r](U)p.r(C)p.[fl2r](G)p.r(A)p.[fl2r](A)p.r(A)p.[fl2r](G)p.r(A)p.[fl2r](A)p.r(T)p.r(T)}|RNA2{r(U)p.r(U)p.r(C)p.r(U)p.r(U)p.r(U)p.r(C)p.r(G)p.[fl2r](A)p.r(C)p.r(U)p.[fl2r](A)p.r(G)p.r(U)p.r(U)p.r(C)p.[fl2r](A)p.r(G)p.r(C)p.r(T)p.r(T)}$$$RNA1{StrandType:ss}|RNA2{StrandType:as}$	49
RNA1{[fl2r](G)p.r(C)p.[fl2r](U)p.r(G)p.[fl2r](U)p.r(A)p.[fl2r](A)p.r(C)p.[fl2r](C)p.r(U)p.[fl2r](C)p.r(G)p.[fl2r](G)p.r(A)p.[fl2r](G)p.r(A)p.[fl2r](G)p.r(U)p.r(U)p.r(T)p.r(T)}|RNA2{r(A)p.r(A)p.r(C)p.r(U)p.r(C)p.r(U)p.r(C)p.r(C)p.r(G)p.r(A)p.r(G)p.r(G)p.r(U)p.r(U)p.r(A)p.r(C)p.r(A)p.r(G)p.r(C)p.r(T)p.r(T)}$$$RNA1{StrandType:ss}|RNA2{StrandType:as}$	51
RNA1{[fl2r](G)p.r(C)p.[fl2r](U)p.r(U)p.[fl2r](C)p.r(G)p.[fl2r](G)p.r(A)p.[fl2r](A)p.r(A)p.[fl2r](C)p.r(U)p.[fl2r](G)p.r(G)p.[fl2r](A)p.r(C)p.[fl2r](A)p.r(U)p.[fl2r](C)p.r(T)p.r(T)}|RNA2{[fl2r](G)p.r(A)p.r(U)p.[fl2r](G)p.r(U)p.r(C)p.r(C)p.r(A)p.[fl2r](G)p.r(U)p.r(U)p.r(U)p.r(C)p.r(C)p.[fl2r](G)p.r(A)p.r(A)p.[fl2r](G)p.r(C)p.r(T)p.r(T)}$$$RNA1{StrandType:ss}|RNA2{StrandType:as}$	29
RNA1{[fl2r](G)p.r(G)p.[fl2r](A)p.r(A)p.[fl2r](G)p.r(A)p.[fl2r](A)p.r(G)p.[fl2r](A)p.r(U)p.[fl2r](A)p.r(G)p.[fl2r](A)p.r(G)p.[fl2r](C)p.r(A)p.[fl2r](U)p.r(C)p.[fl2r](C)p.r(T)p.r(T)}|RNA2{r(G)p.r(G)p.r(A)p.[fl2r](U)p.r(G)p.r(C)p.r(U)p.r(C)p.[fl2r](U)p.r(A)p.r(U)p.r(C)p.r(U)p.r(U)p.r(C)p.r(U)p.r(U)p.r(C)p.r(C)p.r(T)p.r(T)}$$$RNA1{StrandType:ss}|RNA2{StrandType:as}$	13
RNA1{[fl2r](G)p.r(G)p.[fl2r](C)p.r(U)p.[fl2r](U)p.r(A)p.[fl2r](G)p.r(U)p.[fl2r](C)p.r(A)p.[fl2r](C)p.r(U)p.[fl2r](C)p.r(C)p.[fl2r](U)p.r(C)p.[fl2r](U)p.r(U)p.[fl2r](C)p.r(T)p.r(T)}|RNA2{r(G)p.r(A)p.r(A)p.r(G)p.r(A)p.r(G)p.r(G)p.r(A)p.r(G)p.r(U)p.r(G)p.r(A)p.r(C)p.r(U)p.r(A)p.r(A)p.r(G)p.r(C)p.r(C)p.r(T)p.r(T)}$$$RNA1{StrandType:ss}|RNA2{StrandType:as}$	23
RNA1{[fl2r](G)p.r(U)p.[fl2r](U)p.r(C)p.[fl2r](A)p.r(C)p.[fl2r](G)p.r(U)p.[fl2r](C)p.r(C)p.[fl2r](U)p.r(A)p.[fl2r](C)p.r(C)p.[fl2r](C)p.r(C)p.[fl2r](U)p.r(U)p.[fl2r](U)p.r(T)p.r(T)}|RNA2{r(A)p.r(A)p.r(A)p.r(G)p.r(G)p.r(G)p.r(G)p.r(U)p.r(A)p.r(G)p.r(G)p.r(A)p.[fl2r](C)p.r(G)p.r(U)p.r(G)p.r(A)p.r(A)p.[fl2r](C)p.r(T)p.r(T)}$$$RNA1{StrandType:ss}|RNA2{StrandType:as}$	23
RNA1{[fl2r](U)p.r(A)p.[fl2r](A)p.r(C)p.[fl2r](C)p.r(C)p.[fl2r](C)p.r(A)p.[fl2r](A)p.r(G)p.[fl2r](A)p.r(A)p.[fl2r](C)p.r(G)p.[fl2r](G)p.r(G)p.[fl2r](C)p.r(U)p.[fl2r](U)p.r(T)p.r(T)}|RNA2{[fl2r](A)p.[fl2r](A)p.r(G)p.r(C)p.r(C)p.r(C)p.r(G)p.r(U)p.r(U)p.r(C)p.r(U)p.r(U)p.r(G)p.r(G)p.r(G)p.r(G)p.r(U)p.r(U)p.[fl2r](A)p.r(T)p.r(T)}$$$RNA1{StrandType:ss}|RNA2{StrandType:as}$	47
RNA1{[fl2r](U)p.r(A)p.r(A)p.r(C)p.r(C)p.r(C)p.[fl2r](C)p.r(A)p.r(A)p.r(G)p.r(A)p.r(A)p.[fl2r](C)p.r(G)p.r(G)p.r(G)p.r(C)p.r(U)p.r(U)p.r(T)p.r(T)}|RNA2{r(A)p.r(A)p.r(G)p.r(C)p.r(C)p.r(C)p.[fl2r](G)p.r(U)p.r(U)p.r(C)p.r(U)p.[fl2r](U)p.r(G)p.r(G)p.r(G)p.r(G)p.r(U)p.[fl2r](U)p.r(A)p.r(T)p.r(T)}$$$RNA1{StrandType:ss}|RNA2{StrandType:as}$	72
RNA1{[fl2r](U)p.r(A)p.r(A)p.r(C)p.r(C)p.r(C)p.r(C)p.r(A)p.r(A)p.r(G)p.r(A)p.r(A)p.r(C)p.r(G)p.r(G)p.r(G)p.r(C)p.r(U)p.r(U)p.r(T)p.r(T)}|RNA2{r(A)p.r(A)p.r(G)p.r(C)p.r(C)p.r(C)p.r(G)p.r(U)p.r(U)p.r(C)p.r(U)p.r(U)p.r(G)p.r(G)p.r(G)p.r(G)p.r(U)p.[fl2r](U)p.r(A)p.r(T)p.r(T)}$$$RNA1{StrandType:ss}|RNA2{StrandType:as}$	73
RNA1{[fl2r](U)p.r(C)p.[fl2r](C)p.r(A)p.[fl2r](A)p.r(G)p.[fl2r](C)p.r(U)p.[fl2r](U)p.r(C)p.[fl2r](C)p.r(U)p.[fl2r](C)p.r(G)p.[fl2r](U)p.r(U)p.[fl2r](G)p.r(G)p.[fl2r](U)p.r(T)p.r(T)}|RNA2{r(A)p.r(C)p.r(C)p.r(A)p.r(A)p.r(C)p.r(G)p.r(A)p.r(G)p.r(G)p.r(A)p.r(A)p.r(G)p.r(C)p.[fl2r](U)p.[fl2r](U)p.r(G)p.r(G)p.r(A)p.r(T)p.r(T)}$$$RNA1{StrandType:ss}|RNA2{StrandType:as}$	51
RNA1{[fl2r](U)p.r(C)p.[fl2r](C)p.r(G)p.[fl2r](G)p.r(C)p.[fl2r](U)p.r(A)p.[fl2r](A)p.r(C)p.[fl2r](U)p.r(C)p.[fl2r](U)p.r(G)p.[fl2r](A)p.r(G)p.[fl2r](G)p.r(A)p.[fl2r](C)p.r(T)p.r(T)}|RNA2{r(G)p.r(U)p.r(C)p.r(C)p.r(U)p.r(C)p.r(A)p.r(G)p.r(A)p.r(G)p.r(U)p.r(U)p.r(A)p.r(G)p.r(C)p.r(C)p.r(G)p.r(G)p.r(A)p.r(T)p.r(T)}$$$RNA1{StrandType:ss}|RNA2{StrandType:as}$	41
RNA1{[fl2r](U)p.r(C)p.[fl2r](C)p.r(U)p.[fl2r](C)p.r(G)p.[fl2r](U)p.r(C)p.[fl2r](G)p.r(U)p.[fl2r](C)p.r(U)p.[fl2r](G)p.r(U)p.[fl2r](U)p.r(C)p.[fl2r](U)p.r(A)p.[fl2r](A)p.r(T)p.r(T)}|RNA2{r(U)p.r(U)p.r(A)p.r(G)p.r(A)p.r(A)p.[fl2r](C)p.r(A)p.r(G)p.r(A)p.[fl2r](C)p.r(G)p.r(A)p.[fl2r](C)p.r(G)p.r(A)p.r(G)p.r(G)p.r(A)p.r(T)p.r(T)}$$$RNA1{StrandType:ss}|RNA2{StrandType:as}$	49
